What was measured:
[1] = tested on: SMN2 minigene mRNA (SMN2-A minigene construct); experiment: SMN2 minigene mRNA splicing RT-qPCR assay in cultured cells; format: cell-based, human; conditions: Homo sapiens, HEK293-H; HEK293H cells stably transfected with SMN2-A minigene, 24 hours, 7-point concentration data; concentration giving 1.5-fold SMN2 full length mRNA relative to vehicle-treated cells; read-out: EC1.5x for production of full length SMN2 mRNA
Outline: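 Full-length SMN2 minigene mRNA, measured by exon 7/luciferase-specific RT-qPCR that excludes endogenous SMN1/SMN2, was normalized to GAPDH and expressed relative to vehicle-treated cells via modified ΔΔCt. Stably transfected HEK293H cells received compound (7-point, 3.16-fold series, duplicates) for 24 h at 37 °C.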

Smn protein = Smn protein assay (HTRF) in cultured cells (SMA patient fibroblasts GM03813); format: cell-based, human; conditions: 48 hours; for EC1.5x for Smn protein expression: SMA patient fibroblast cells (GM03813), HTRF, 7-point concentration data, concentration producing 1.5 times Smn protein vs DMSO vehicle control; for maximum fold (Fold) increase of Smn protein: SMA patient fibroblast cells, 7-point concentration curve, relative to vehicle control
Outline: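 Smn level is expressed as fold over vehicle, from blank-corrected ΔF of the 665/620 nm HTRF ratio. Readout used anti-SMN d2 and kryptate antibodies on RIPA lysates. GM03813 SMA fibroblasts had 48 h exposure at 37° C to seven 3.16-fold compound dilutions, run in triplicate.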

melting point [°C]	SMILES	EC (1.5-fold) [1] [µM]	EC1.5x for Smn protein expression (Smn protein)	maximum fold (Fold) increase of Smn protein (Smn protein)
279 to 282	Cc1cn2cc(-c3cc4ccc(N5C[C@@H](C)N[C@@H](C)C5)nc4oc3=O)nc2c(C)n1 [Cpd 90, 3-(6,8-dimethylimidazo[1,2-a]pyrazin-2-yl)-7-[(3R,5S)-3,5-dimethylpiperazin-1-yl]-2H-pyrano[2,3-b]pyridin-2-one]	≤ 0.1	**** (an EC1.5×≦0.3 μM is indicated by four stars (****))	***** (a fold increase >1.65 is indicated by five stars (*****))
243 to 245	Cc1cn2cc(-c3cc4ccc(N5CCCN(C)CC5)nc4oc3=O)nc2c(C)n1 [Cpd 91, 3-(6,8-dimethylimidazo[1,2-a]pyrazin-2-yl)-7-(4-methyl-1,4-diazepan-1-yl)-2H-pyrano[2,3-b]pyridin-2-one]	≤ 0.1	**** (an EC1.5×≦0.3 μM is indicated by four stars (****))	***** (a fold increase >1.65 is indicated by five stars (*****))
210 to 212	C[C@@H]1CN[C@@H](C)CN1c1ccc2cc(-c3cn4cccc(F)c4n3)c(=O)oc2n1 [Cpd 92, 7-[(2R,5S)-2,5-dimethylpiperazin-1-yl]-3-(8-fluoroimidazo[1,2-a]pyridin-2-yl)-2H-pyrano[2,3-b]pyridin-2-one]	≤ 0.1	**** (an EC1.5×≦0.3 μM is indicated by four stars (****))	**** (a fold increase between >1.5 and ≦1.65 is indicated by four stars (****))
172 to 175	C[C@@H]1CN[C@@H](C)CN1c1ccc2cc(-c3cn4cccc(Cl)c4n3)c(=O)oc2n1 [Cpd 94, 3-(8-chloroimidazo[1,2-a]pyridin-2-yl)-7-[(2R,5S)-2,5-dimethylpiperazin-1-yl]-2H-pyrano[2,3-b]pyridin-2-one]	≤ 0.1	**** (an EC1.5×≦0.3 μM is indicated by four stars (****))	**** (a fold increase between >1.5 and ≦1.65 is indicated by four stars (****))
190 to 192	Cc1cn2cc(-c3cc4ccc(N5C[C@H](C)NC[C@H]5C)nc4oc3=O)nc2c(C)n1 [Cpd 95, 3-(6,8-dimethylimidazo[1,2-a]pyrazin-2-yl)-7-[(2R,5S)-2,5-dimethylpiperazin-1-yl]-2H-pyrano[2,3-b]pyridin-2-one]	≤ 0.1	**** (an EC1.5×≦0.3 μM is indicated by four stars (****))	***** (a fold increase >1.65 is indicated by five stars (*****))
114 to 117	Cc1ccn2cc(-c3cc4ccc(N5C[C@H](C)N(C)C[C@H]5C)nc4oc3=O)nc2c1 [Cpd 96, 3-(7-methylimidazo[1,2-a]pyridin-2-yl)-7-[(2R,5S)-2,4,5-trimethylpiperazin-1-yl]-2H-pyrano[2,3-b]pyridin-2-one]	0.3 to 1	–	*** (a fold increase between >1.35 and ≦1.5 is indicated by three stars (***))
194 to 197	C[C@@H]1CN(C)[C@@H](C)CN1c1ccc2cc(-c3cn4cccc(F)c4n3)c(=O)oc2n1 [Cpd 97, 3-(8-fluoroimidazo[1,2-a]pyridin-2-yl)-7-[(2R,5S)-2,4,5-trimethylpiperazin-1-yl]-2H-pyrano[2,3-b]pyridin-2-one]	0.1 to 0.3	** (an EC1.5× between >1 and ≦3 μM is indicated by two stars (**))	**** (a fold increase between >1.5 and ≦1.65 is indicated by four stars (****))
191 to 196	C[C@@H]1CN(C)[C@@H](C)CN1c1ccc2cc(-c3cn4cccc(Cl)c4n3)c(=O)oc2n1 [Cpd 98, 3-(8-chloroimidazo[1,2-a]pyridin-2-yl)-7-[(2R,5S)-2,4,5-trimethylpiperazin-1-yl]-2H-pyrano [2,3-b]pyridin-2-one]	0.1 to 0.3	** (an EC1.5× between >1 and ≦3 μM is indicated by two stars (**))	**** (a fold increase between >1.5 and ≦1.65 is indicated by four stars (****))
270 to 273	Cc1ccn2cc(-c3cc4ccc(N5C[C@@H](C)N[C@@H](C)C5)nc4oc3=O)nc2n1 [Cpd 99, 7-[(3R,5S)-3,5-dimethylpiperazin-1-yl]-3-(7-methylimidazo[1,2-a]pyrimidin-2-yl)-2H-pyrano[2,3-b]pyridin-2-one]	0.1 to 0.3	–	*** (a fold increase between >1.35 and ≦1.5 is indicated by three stars (***))
246 to 249	Cc1ccn2cc(-c3cc4ccc(N5C[C@@H](C)N[C@@H](C)C5)nc4oc3=O)nc2c1 [Cpd 100, 7-[(3R,5S)-3,5-dimethylpiperazin-1-yl]-3-(7-methylimidazo[1,2-a]pyridin-2-yl)-2H-pyrano[2,3-b]pyridin-2-one]	≤ 0.1	–	*** (a fold increase between >1.35 and ≦1.5 is indicated by three stars (***))
279 to 281	Cc1cn2cc(-c3cc4ccc(N5C[C@@H](C)N[C@@H](C)C5)nc4oc3=O)nc2cn1 [Cpd 101, 7-[(3R,5S)-3,5-dimethylpiperazin-1-yl]-3-(6-methylimidazo[1,2-a]pyrazin-2-yl)-2H-pyrano[2,3-b]pyridin-2-one]	≤ 0.1	*** (an EC1.5× between >0.3 μM and ≦1 μM is indicated by three stars (***))	**** (a fold increase between >1.5 and ≦1.65 is indicated by four stars (****))
248 to 250	Cc1cn2cc(-c3cc4ccc(N5C[C@H](C)N(C)C[C@H]5C)nc4oc3=O)nc2cn1 [Cpd 103, 3-(6-methylimidazo[1,2-a]pyrazin-2-yl)-7-[(2R,5S)-2,4,5-trimethylpiperazin-1-yl]-2H-pyrano[2,3-b]pyridin-2-one]	0.1 to 0.3	*** (an EC1.5× between >0.3 μM and ≦1 μM is indicated by three stars (***))	**** (a fold increase between >1.5 and ≦1.65 is indicated by four stars (****))
267 to 269	Cc1cn2cc(-c3cc4ccc(N5CCCNCC5)nc4oc3=O)nc2cn1.Cl [Cpd 104, 7-(1,4-diazepan-1-yl)-3-(6-methylimidazo[1,2-a]pyrazin-2-yl)-2H-pyrano[2,3-b]pyridin-2-one hydrochloride]	≤ 0.1	–	** (a fold increase between >1.2 and ≦1.35 is indicated by two stars (**))
290 to 293	Cc1cn2cc(-c3cc4ccc(N5CCCN(C)CC5)nc4oc3=O)nc2cn1 [Cpd 105, 7-(4-methyl-1,4-diazepan-1-yl)-3-(6-methylimidazo[1,2-a]pyrazin-2-yl)-2H-pyrano[2,3-b]pyridin-2-one]	≤ 0.1	** (an EC1.5× between >1 and ≦3 μM is indicated by two stars (**))	*** (a fold increase between >1.35 and ≦1.5 is indicated by three stars (***))
280 to 283	Cc1cc(F)c2nc(-c3cc4ccc(N5C[C@@H](C)N[C@@H](C)C5)nc4oc3=O)cn2c1 [Cpd 106, 7-[(3R,5S)-3,5-dimethylpiperazin-1-yl]-3-(8-fluoro-6-methylimidazo[1,2-a]pyridin-2-yl)-2H-pyrano[2,3-b]pyridin-2-one]	≤ 0.1	*** (an EC1.5× between >0.3 μM and ≦1 μM is indicated by three stars (***))	*** (a fold increase between >1.35 and ≦1.5 is indicated by three stars (***))
276 to 279	Cc1cc(F)c2nc(-c3cc4ccc(N5CCCNCC5)nc4oc3=O)cn2c1.Cl [Cpd 107, 7-(1,4-diazepan-1-yl)-3-(8-fluoro-6-methylimidazo[1,2-a]pyridin-2-yl)-2H-pyrano[2,3-b]pyridin-2-one hydrochloride]	≤ 0.1	*** (an EC1.5× between >0.3 μM and ≦1 μM is indicated by three stars (***))	**** (a fold increase between >1.5 and ≦1.65 is indicated by four stars (****))
231 to 235	O=c1oc2nc(N3CCNCC3)ccc2cc1-c1cn2cccc(F)c2n1 [Cpd 108, 3-(8-fluoroimidazo[1,2-a]pyridin-2-yl)-7-(piperazin-1-yl)-2H-pyrano[2,3-b]pyridin-2-one]	≤ 0.1	**** (an EC1.5×≦0.3 μM is indicated by four stars (****))	**** (a fold increase between >1.5 and ≦1.65 is indicated by four stars (****))
233 to 237	O=c1oc2nc(N3CCNCC3)ccc2cc1-c1cn2cccc(Cl)c2n1 [Cpd 109, 3-(8-chloroimidazo[1,2-a]pyridin-2-yl)-7-(piperazin-1-yl)-2H-pyrano[2,3-b]pyridin-2-one]	≤ 0.1	**** (an EC1.5×≦0.3 μM is indicated by four stars (****))	**** (a fold increase between >1.5 and ≦1.65 is indicated by four stars (****))

Source: patent US9371336B2, “Compounds for treating spinal muscular atrophy” (PTC Therapeutics Inc., priority 2012, dated 2016)
